Columns and labels:
hIL-6 mRNA = assay: Quantification of hIL-6 mRNA in LPS-stimulated U937 macrophages (real-time PCR); format: cell-based, human; design: key: Active: an active compound is one that causes a ≧20% inhibition in IL-6 mRNA at a concentration less than or equal to 10 μM; conditions: U937 cells differentiated with PMA, 1 h pretreatment, LPS 1 μg/mL, 3 h; IL-6 mRNA normalised to hCyclophilin; compound ≤10 μM
Method: In this example, hIL-6 mRNA in tissue culture cells was quantitated to measure the transcriptional inhibition of hIL-6 when treated with a compound of the invention.
A human leukemic monocytic lymphoma cell line (U937) was plated (3.2×10^5 cells per well) in a 96-well plate in 100 μL RPMI 1640+10% FBS, and differentiated into macrophages with PMA (60 ng/mL) for 3 days prior to the addition of the compound of interest. The cells were pretreated for 1 h with the test compound in DMSO prior to stimulation with lipopolysaccharide from Escherichia coli at 1 μg/mL. The cells were incubated for 3 h before harvest. At the time of harvest, cells were rinsed in 200 μL PBS. Cell lysis solution (70 μL) was added the cells for 10 min, and mRNA was then prepared using the “mRNA Catcher PLUS plate” (Invitrogen), according to the protocol supplied.
(§1) The eluted mRNA isolated was then used in a one-step quantitative real-time PCR reaction, using components of the UltraSense kit together with Applied Biosystems primer-probe mixes. 10 μL of template was amplified with 1.75 μL of IL-6 primer-probe, and 1 μL of hCyclophilin primer probe, and the reaction was carried out in multiplex. Real-time PCR data was analyzed, normalizing the Ct values for hIL-6 to hCyclophilin, prior to determining the fold induction of each unknown sample, relative to the control.

hVCAM-1 mRNA = assay: Quantification of hVCAM-1 mRNA in TNF-α-stimulated HUV-EC-C cells (real-time PCR); format: cell-based, human; design: key: Active: an active compound is one that causes a ≧20% inhibition in VCAM-1 mRNA at a concentration less than or equal to 10 μM; conditions: 1 h pretreatment, TNF-α 10 ng/mL, 24 h, VCAM-1 mRNA normalised to hCyclophilin, compound ≤10 μM
Method: In this example, hVCAM-1 mRNA in tissue culture cells was quantitated to measure the transcriptional inhibition of hVCAM when treated with a compound of the invention.
A human umbilical vein endothelial cell line (HUV-EC-C) was plated in a 96-well plate (5.0×10^3 cells/well) in 100 μL EGM complete media and incubated for 24 h prior to the addition of the compound of interest. The cells were pretreated for 1 h with the test compound in DMSO prior to stimulation with tumor necrosis factor-α (10 ng/mL). The cells were incubated for an additional 24 h before harvest. At time of harvest, the cells were rinsed in 200 μL PBS, and cell lysis solution (70 μL) was then added the cells for 10 min. mRNA was then prepared using the “mRNA Catcher PLUS plate” (Invitrogen), according to the protocol supplied.
as §1, with “mRNA” for “mRNA isolated”, “hVCAM-1” for “IL-6”, “hVCAM-1” for “hIL-6”

COc1cc(OCCN)cc2nc(-c3cc(C)c(O)c(C)c3)[nH]c(=O)c12 [Example 3, 7-(2-amino-ethoxy)-2-(4-hydroxy-3,5-dimethyl-phenyl)-5-methoxy-3H-quinazolin-4-one]
Inhibition of IL-6 expression (hIL-6 mRNA): Active
Inhibition of VCAM-1 expression (hVCAM-1 mRNA): Active

COCCOc1cc(OC)c2c(=O)[nH]c(-c3cc(C)c(O)c(C)c3)nc2c1 [Example 4, 2-(4-hydroxy-3,5-dimethyl-phenyl)-5-methoxy-7-(2-methoxy-ethoxy)-3H-quinazolin-4-one]
Inhibition of IL-6 expression (hIL-6 mRNA): Active
Inhibition of VCAM-1 expression (hVCAM-1 mRNA): Active

COc1cc(OCCOCc2ccccc2)cc2nc(-c3cc(C)c(O)c(C)c3)[nH]c(=O)c12 [Example 5, 7-(2-benzyloxy-ethoxy)-2-(4-hydroxy-3,5-dimethyl-phenyl)-5-methoxy-3H-quinazolin-4-one]
Inhibition of IL-6 expression (hIL-6 mRNA): Active
Inhibition of VCAM-1 expression (hVCAM-1 mRNA): Active

Cc1cc(-c2nc3cc(OCCN(C)C)ccc3c(=O)[nH]2)cc(C)c1O [Example 7, 7-(2-dimethylamino-ethoxy)-2-(4-hydroxy-3,5-dimethylphenyl)-3H-quinazolin-4-one]
Inhibition of IL-6 expression (hIL-6 mRNA): Active
Inhibition of VCAM-1 expression (hVCAM-1 mRNA): Active

Cc1cc(-c2nc3ccc(Nc4ccccn4)cc3c(=O)[nH]2)cc(C)c1O [Example 9, 2-(4-hydroxy-3,5-dimethyl-phenyl)-6-(pyridin-2-ylamino)-3H-quinazolin-4-one]
Inhibition of IL-6 expression (hIL-6 mRNA): Active
Inhibition of VCAM-1 expression (hVCAM-1 mRNA): Active

Cc1cc(-c2nc3ccc(CN4CCN(C)CC4)cc3c(=O)[nH]2)cc(C)c1O [Example 10, 2-(4-hydroxy-3,5-dimethylphenyl)-6-((4-methylpiperazin-1-yl)methyl)quinazolin-4(3H)-one]
Inhibition of IL-6 expression (hIL-6 mRNA): Active
Inhibition of VCAM-1 expression (hVCAM-1 mRNA): Active

Cc1cc(-c2nc3cc(F)cc(F)c3c(=O)[nH]2)cc(C)c1OCCO [Example 15, 5,7-difluoro-2-(4-(2-hydroxyethoxy)-3,5-dimethylphenyl)quinazolin-4(3H)-one]
Inhibition of IL-6 expression (hIL-6 mRNA): Active
Inhibition of VCAM-1 expression (hVCAM-1 mRNA): Inactive

Cc1cc(-c2nc3ccc(CN4CCOCC4)cc3c(=O)[nH]2)cc(C)c1OCCO [Example 17, 2-[4-(2-hydroxyethoxy)-3,5-dimethyl-phenyl]-6-morpholin-4-ylmethyl-3H-quinazolin-4-one]
Inhibition of IL-6 expression (hIL-6 mRNA): Active
Inhibition of VCAM-1 expression (hVCAM-1 mRNA): Inactive

COc1cc(OC)c2c(=O)[nH]c(-c3cc(C)c(OCC(O)CO)c(C)c3)nc2c1 (stereo not shown) [Example 18, 2-[4-(2,3-Dihydroxy-propoxy)-3,5-dimethyl-phenyl]-5,7-dimethoxy-3H-quinazolin-4-one]
Inhibition of IL-6 expression (hIL-6 mRNA): Active
Inhibition of VCAM-1 expression (hVCAM-1 mRNA): Active

COc1cc(OC)c2c(=O)[nH]c(-c3ccc(OCCO)cc3)nc2c1 [Example 20, 2-[4-(2-hydroxy-ethoxy)-phenyl]-5,7-dimethoxy-3H-quinazolin-4-one]
Inhibition of IL-6 expression (hIL-6 mRNA): Active
Inhibition of VCAM-1 expression (hVCAM-1 mRNA): Active

COc1cc(OC)c2c(=O)[nH]c(-c3ccc(OCCO)c4ccccc34)nc2c1 [Example 21, 2-[4-(2-hydroxy-ethoxy)-naphthalen-1-yl]-5,7-dimethoxy-3H-quinazolin-4-one]
Inhibition of IL-6 expression (hIL-6 mRNA): Active
Inhibition of VCAM-1 expression (hVCAM-1 mRNA): Inactive

COc1cc(OC)c2c(=O)[nH]c(-c3ccc4oc(CO)cc4c3)nc2c1 [Example 22, 2-(2-hydroxymethyl-benzofuran-5-yl)-5,7-dimethoxy-3H-quinazolin-4-one]
Inhibition of IL-6 expression (hIL-6 mRNA): Active
Inhibition of VCAM-1 expression (hVCAM-1 mRNA): Active

COc1cc(OCCOCc2ccccc2)cc2nc(-c3cc(C)c(OCCO)c(C)c3)[nH]c(=O)c12 [Example 23, 7-(2-benzyloxy-ethoxy)-2-[4-(2-hydroxy-ethoxy)-3,5-dimethyl-phenyl]-5-methoxy-3H-quinazolin-4-one]
Inhibition of IL-6 expression (hIL-6 mRNA): Active
Inhibition of VCAM-1 expression (hVCAM-1 mRNA): Active

CNC(=O)COc1c(C)cc(-c2nc3cc(OC)cc(OC)c3c(=O)[nH]2)cc1C [Example 25, 2-[4-(5,7-dimethoxy-4-oxo-3,4-dihydro-quinazolin-2-yl)-2,6-dimethyl-phenoxy]-N-methyl-acetamide]
Inhibition of IL-6 expression (hIL-6 mRNA): Active
Inhibition of VCAM-1 expression (hVCAM-1 mRNA): Active

COc1ccc(NC(=O)COc2c(C)cc(-c3nc4cc(OC)cc(OC)c4c(=O)[nH]3)cc2C)cc1 [Example 26, 2-[4-(5,7-Dimethoxy-4-oxo-3,4-dihydro-quinazolin-2-yl)-2,6-dimethyl-phenoxy]-N-(4-methoxy-phenyl)-acetamide]
Inhibition of IL-6 expression (hIL-6 mRNA): Active
Inhibition of VCAM-1 expression (hVCAM-1 mRNA): Active

COc1cc(OC)c2c(=O)[nH]c(-c3cc(C)c(OCCCCO)c(C)c3)nc2c1 [Example 28, 2-[4-(4-hydroxy-butoxy)-3,5-dimethyl-phenyl]-5,7-dimethoxy-3H-quinazolin-4-one]
Inhibition of IL-6 expression (hIL-6 mRNA): Active
Inhibition of VCAM-1 expression (hVCAM-1 mRNA): Active

Cc1cc(-c2nc3cc(Cl)ccc3c(=O)[nH]2)cc(C)c1OCCO [Example 29, 7-chloro-2-(4-(2-hydroxyethoxy)-3,5-dimethylphenyl)quinazolin-4(3H)-one]
Inhibition of IL-6 expression (hIL-6 mRNA): Active
Inhibition of VCAM-1 expression (hVCAM-1 mRNA): Active

Cc1cc(-c2nc3c(Cl)cccc3c(=O)[nH]2)cc(C)c1OCCO [Example 30, 8-chloro-2-(4-(2-hydroxyethoxy)-3,5-dimethylphenyl)quinazolin-4(3H)-one]
Inhibition of IL-6 expression (hIL-6 mRNA): Active
Inhibition of VCAM-1 expression (hVCAM-1 mRNA): Inactive

COc1cccc2c(=O)[nH]c(-c3cc(C)c(OCCO)c(C)c3)nc12 [Example 31, 2-(4-(2-hydroxyethoxy)-3,5-dimethylphenyl)-8-methoxyquinazolin-4(3H)-one]
Inhibition of IL-6 expression (hIL-6 mRNA): Active
Inhibition of VCAM-1 expression (hVCAM-1 mRNA): Active

Cc1cc(-c2nc3cccc(Cl)c3c(=O)[nH]2)cc(C)c1OCCO [Example 32, 5-chloro-2-(4-(2-hydroxyethoxy)-3,5-dimethylphenyl)quinazolin-4(3H)-one]
Inhibition of IL-6 expression (hIL-6 mRNA): Active
Inhibition of VCAM-1 expression (hVCAM-1 mRNA): Active

COc1ccc2c(=O)[nH]c(-c3cc(C)c(OCCO)c(C)c3)nc2c1 [Example 33, 2-(4-(2-hydroxyethoxy)-3,5-dimethylphenyl)-7-methoxyquinazolin-4(3H)-one]
Inhibition of IL-6 expression (hIL-6 mRNA): Active
Inhibition of VCAM-1 expression (hVCAM-1 mRNA): Active

Cc1cc(-c2nc3ccc(CN4CCN(C)CC4)cc3c(=O)[nH]2)cc(C)c1OCCO [Example 34, 2-(4-(2-hydroxyethoxy)-3,5-dimethylphenyl)-6-((4-methylpiperazin-1-yl)methyl)quinazolin-4(3H)-one]
Inhibition of IL-6 expression (hIL-6 mRNA): Active
Inhibition of VCAM-1 expression (hVCAM-1 mRNA): Active

COc1cc(OC)c2c(=O)[nH]c(-c3ccc(OCCNc4nnc(-c5ccccc5)[nH]4)c(C)c3)nc2c1 [Example 35, 5,7-Dimethoxy-2-{3-methyl-4-[2-(5-phenyl-4H-[1,2,4]triazol-3-ylamino)-ethoxy]-phenyl}-3H-quinazolin-4-one]
Inhibition of IL-6 expression (hIL-6 mRNA): Active
Inhibition of VCAM-1 expression (hVCAM-1 mRNA): Active

COc1cc(OC)c2c(=O)[nH]c(-c3cc(C)c(OCCNc4nc(C)no4)c(C)c3)nc2c1 [Example 36, 2-{3,5-Dimethyl-4-[2-(3-methyl-[1,2,4]oxadiazol-5-ylamino)-ethoxy]-phenyl}-5,7-dimethoxy-3H-quinazolin-4-one]
Inhibition of IL-6 expression (hIL-6 mRNA): Active
Inhibition of VCAM-1 expression (hVCAM-1 mRNA): Active

COc1cc(OC)c2c(=O)[nH]c(-c3cc(C)c(OCCNC(C)=O)c(C)c3)nc2n1 [Example 37, N-{2-[4-(5,7-dimethoxy-4-oxo-3,4-dihydro-pyrido[2,3-d]pyrimidin-2-yl)-2,6-dimethyl-phenoxy]-ethyl}-acetamide]
Inhibition of IL-6 expression (hIL-6 mRNA): Active
Inhibition of VCAM-1 expression (hVCAM-1 mRNA): Inactive

COc1cc(OC)c2c(=O)[nH]c(-c3cc(C)c(CNC(C)=O)c(C)c3)nc2c1 [Example 38, N-(4-(5,7-dimethoxy-4-oxo-3,4-dihydroquinazolin-2-yl)-2,6-dimethylbenzyl)acetamide]
Inhibition of IL-6 expression (hIL-6 mRNA): Active
Inhibition of VCAM-1 expression (hVCAM-1 mRNA): Active

Reference: patent publication US9757368B2, “Anti-inflammatory agents” (Resverlogix Corp., priority 2009, dated 2017)
